Measurements as given in patent US8436023B2, “Cyclohexyl-azetidinyl antagonists of CCR2” (Janssen Pharmaceutica N.V., priority 2010, dated 2013).

Biological target: T1, CCR2 (Homo sapiens, UniProt P41597)
T1 construct: host or cells: THP-1 human monocytic cells
T1 sequence (P41597 1-360 isoform P41597-2): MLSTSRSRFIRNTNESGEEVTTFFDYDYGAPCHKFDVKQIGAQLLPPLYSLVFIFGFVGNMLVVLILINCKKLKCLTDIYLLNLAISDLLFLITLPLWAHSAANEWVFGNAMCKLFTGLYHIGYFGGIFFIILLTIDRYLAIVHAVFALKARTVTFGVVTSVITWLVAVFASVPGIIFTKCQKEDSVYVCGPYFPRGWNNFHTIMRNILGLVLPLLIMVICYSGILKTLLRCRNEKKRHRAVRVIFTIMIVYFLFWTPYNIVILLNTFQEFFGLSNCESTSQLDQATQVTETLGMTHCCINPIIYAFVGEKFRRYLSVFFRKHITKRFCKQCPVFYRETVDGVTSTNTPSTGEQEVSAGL
Experiment: MCP-1 Receptor Binding Assay in THP-1 Cells
Conditions: 0.5 nM 125I labeled MCP-1, 2 hours at 30° C., less polar isomer tested where stated, read-out: Inhibition of MCP-1 Binding IC50, CCR2 Binding
Protocol: MCP-1 Receptor Binding Assay in THP-1 Cells
Human monocytic cell line THP-1 cells were obtained from American Type Culture Collection (Manassas, Va., USA). The THP-1 cells were grown in RPMI-1640 (RPMI: Roswell Park Memorial Institute Medium-cell culture growth media) supplemented with 10% fetal bovine serum in a humidified 5% CO2 atmosphere at 37° C. The cell density was maintained […].
THP-1 (cells were incubated with 0.5 nM ^125I labeled MCP-1 (Perkin-Elmer Life Sciences, Inc. Boston, Mass.) in the presence of varying concentrations of either unlabeled MCP-1 (R & D Systems, Minneapolis, Minn.) or test compound for 2 hours at 30° C. in a 96 well plate. Cells were then harvested onto a filter plate, dried, and 20 μL of Microscint 20 was added to each well. Plates were counted in a TopCount NXT, Microplate Scintillation & Luminescence Counter (Perkin-Elmer Life Sciences, Inc. Boston, Mass.). Blank values (buffer only) were subtracted from all values and drug treated values were compared to vehicle treated values. 1 μM cold MCP-1 was used for nonspecific binding.
Where an IC50 value was not obtained for a particular compound, the percent inhibition is provided at a test concentration of 25 μM.

Row | Structure (SMILES) | IC50
1 | CC(C)C1CCC(N2CC(NC(=O)CNc3n[nH]c4ccc(C(F)(F)F)cc34)C2)CC1 (centres unmarked) [Example 52, N-[1-(4-Isopropyl-cyclohexyl)-azetidin-3-yl]-2-(5-trifluoromethyl-1H-indazol-3-ylamino)-acet amide] | 370 nM
2 | Cn1nc(NCC(=O)NC2CN(C3CCC(O)(c4cncs4)CC3)C2)c2cc(C(F)C(F)(F)F)ccc21 (centres unmarked) [Example 65, N-[1-(4-Hydroxy-4-thiazol-5-yl-cyclohexyl)-azetidin-3-yl]-2-[1-methyl-5-(1,2,2,2-tetrafluoro-ethyl)-1H-indazol-3-ylamino]-acetamide] | 100 nM
3 | Cn1nc(NCC(=O)NC2CN(C3CCC(O)(c4ncco4)CC3)C2)c2cc(C(F)(F)F)ccc21 (centres unmarked) [Example 26, N-[1-(4-Hydroxy-4-oxazol-2-yl-cyclohexyl)-azetidin-3-yl]-2-(1-methyl-5-trifluoromethyl-1H-indazol-3-ylamino)-acetamide] | 146 nM
4 | Cn1nc(NCC(=O)NC2CN(C3CCC(C#N)CC3)C2)c2cc(C(F)(F)F)ccc21 (centres unmarked) [Example 38, N-[1-(4-Cyano-cyclohexyl)-azetidin-3-yl]-2-(1-methyl-5-trifluoromethyl-1H-indazol-3-ylamino)-acetamide] | 150 nM
5 | Cn1nc(NCC(=O)NC2CN(C3CCC(O)(c4cncs4)CC3)C2)c2cc(C(O)C(F)(F)F)ccc21 (centres unmarked) [Example 61, N-[1-(4-Hydroxy-4-thiazol-5-yl-cyclohexyl)-azetidin-3-yl]-2-[1-methyl-5-(2,2,2-trifluoro-1-hydroxy-ethyl)-1H-indazol-3-ylamino]-acetamide] | 1700 nM
6 | C=CCn1nc(NCC(=O)NC2CN(C3CCC(C(=O)OCC)CC3)C2)c2cc(C(F)(F)F)ccc21 (centres unmarked) [Example 94, 4-{3-[2-(1-Allyl-5-trifluoromethyl-1H-indazol-3-ylamino)-acetylamino]-azetidin-1-yl}-cyclohexanecarboxylic acid ethyl ester] | 53 nM
7 | CC(C)C1CCC(N2CC(NC(=O)CNc3nn(C)c4ccc(OC(F)(F)F)cc34)C2)CC1 (centres unmarked) [Example 59] | 340 nM
8 | CCOC1CCC(N2CC(NC(=O)CNc3nn(C)c4ccc(C(F)(F)F)cc34)C2)CC1 (centres unmarked) [Example 36, N-[1-(4-Ethoxy-cyclohexyl)-azetidin-3-yl]-2-(1-methyl-5-trifluoromethyl-1H-indazol-3-ylamino)-acetamide] | 228 nM
9 | Cn1ccnc1C1(O)CCC(N2CC(NC(=O)CNc3nn(C)c4ccc(C(F)(F)F)cc34)C2)CC1 (centres unmarked) [Example 27, N-{1-[4-Hydroxy-4-(1-methyl-1H-imidazol-2-yl)-cyclohexyl]-azetidin-3-yl}-2-(1-methyl-5-trifluoromethyl-1H-indazol-3-ylamino)-acetamide] | 1400 nM
10 | Cc1ccc(C2(O)CCC(N3CC(NC(=O)CNc4nn(CCO)c5ccc(C(F)(F)F)cc45)C3)CC2)cn1 (centres unmarked) [Example 74, 2-[1-(2-Hydroxy-ethyl)-5-trifluoromethyl-1H-indazol-3-ylamino]-N-{1-[4-hydroxy-4-(6-methyl-pyridin-3-yl)-cyclohexyl]-azetidin-3-yl}-acetamide] | 55 nM
11 | Cn1nc(NCC(=O)NC2CN(C3CCC(O)(c4cccnc4)CC3)C2)c2cc(C(F)(F)F)ccc21 (centres unmarked) [Example 19, N-[1-(4-Hydroxy-4-pyridin-3-yl-cyclohexyl)-azetidin-3-yl]-2-(1-methyl-5-trifluoromethyl-1H-indazol-3-ylamino)-acetamide] | 56 nM
12 | CCC(O)[C@H]1CC[C@@H](N2CC(NC(=O)CNc3n[nH]c4ncc(C(F)(F)F)cc34)C2)CC1 (single isomer, unassigned) [Example 105] | 330 nM
13 | CC(C)C1CCC(N2CC(NC(=O)CNc3noc4ccc(OC(F)(F)F)cc34)C2)CC1 (centres unmarked) [Example 17, N-[1-(4-Isopropyl-cyclohexyl)-azetidin-3-yl]-2-(5-trifluoromethoxy-benzo[d]isoxazol-3-ylamino)-acetamide] | 750 nM
14 | COc1cccc(C2(O)CCC(N3CC(NC(=O)CNc4nn(Cc5ccccc5)c5ccc(C(F)(F)F)cc45)C3)CC2)n1 (centres unmarked) [Example 96, 2-(1-Benzyl-5-trifluoromethyl-1H-indazol-3-ylamino)-N-{1-[4-hydroxy-4-(6-methoxy-pyridin-2-yl)-cyclohexyl]-azetidin-3-yl}-acetamide] | 270 nM
15 | CCC(O)[C@H]1CC[C@H](N2CC(NC(=O)CNc3n[nH]c4ncc(C(F)(F)F)cc34)C2)CC1 (single isomer, unassigned) [Example 106] | 330 nM
16 | Cn1nc(NCC(=O)NC2CN(C3CCC(C(N)=O)CC3)C2)c2cc(C(F)(F)F)ccc21 (centres unmarked) [Example 39, 4-{3-[2-(1-Methyl-5-trifluoromethyl-1H-indazol-3-ylamino)-acetylamino]-azetidin-1-yl}-cyclohexane carboxylic acid amide] | 380 nM
17 | CCOC(=O)C1CCC(N2CC(NC(=O)CNc3nn(Cc4ccccc4)c4ccc(C(F)(F)F)cc34)C2)CC1 (centres unmarked) [Example 97, 4-{3-[2-(1-Benzyl-5-trifluoromethyl-1H-indazol-3-ylamino)-acetylamino]-azetidin-1-yl}-cyclohexane carboxylic acid ethyl ester] | 170 nM

Stronger by IC50, values ahead:

Row | IC50 | Structure (SMILES)
18 | 45 nM | CCOC(=O)C1CCC(N2CC(NC(=O)CNc3nn(C)c4ccc(OC(F)(F)F)cc34)C2)CC1 (single isomer, unassigned) [Example 58]
19 | 44 nM | Cn1nc(NCC(=O)NC2CN(C3CCC(CO)CC3)C2)c2cc(C(F)(F)F)ccc21 (centres unmarked) [Example 33, N-[1-(4-Hydroxymethyl-cyclohexyl)-azetidin-3-yl]-2-(1-methyl-5-trifluoromethyl-1H-indazol-3-ylamino)-acetamide]
20 | 31 nM | O=C(CNc1noc2ccc(C(F)(F)F)cc12)NC1CN(C2CCC(O)(c3cncs3)CC2)C1 (centres unmarked) [Example 3, N-[1-(4-Hydroxy-4-thiazol-5-yl-cyclohexyl)-azetidin-3-yl]-2-(5-trifluoromethyl-benzo[d]isoxazol-3-ylamino)-acetamide]
21 | 27 nM | CCOCC1CCC(N2CC(NC(=O)CNc3nn(C)c4ccc(C(F)(F)F)cc34)C2)CC1 (centres unmarked) [Example 34, N-[1-(4-Ethoxymethyl-cyclohexyl)-azetidin-3-yl]-2-(1-methyl-5-trifluoromethyl-1H-indazol-3-ylamino)-acetamide]
22 | 23 nM | COc1ccc(C2(O)CCC(N3CC(NC(=O)CNc4noc5ccc(C(F)(F)F)cc45)C3)CC2)cn1 (centres unmarked) [Example 2, N-{1-[4-Hydroxy-4-(6-methoxy-pyridin-3-yl)-cyclohexyl]-azetidin-3-yl}-2-(5-trifluoromethyl-benzo[d]isoxazol-3-ylamino)-acetamide]
23 | 14 nM | COc1ccc(C2CCC(N3CC(NC(=O)CNc4nn(C(=O)NC(C)C)c5ccc(C(F)(F)F)cc45)C3)CC2)cn1 (centres unmarked) [Example 91, 3-[({1-[4-(6-Methoxy-pyridin-3-yl)-cyclohexyl]-azetidin-3-ylcarbamoyl}-methyl)-amino]-5-trifluoromethyl-indazole-1-carboxylic acid isopropylamide]
24 | 13 nM | Cn1nc(NCC(=O)NC2CN(C3CCC(O)(c4nccs4)CC3)C2)c2cc(C(F)(F)F)ccc21 (centres unmarked) [Example 22, N-[1-(4-Hydroxy-4-thiazol-2-yl-cyclohexyl)-azetidin-3-yl]-2-(1-methyl-5-trifluoromethyl-1H-indazol-3-ylamino)-acetamide]
25 | 12 nM | NC(=O)Cc1ccc(C2CCC(N3CC(NC(=O)CNc4n[nH]c5ccc(C(F)(F)F)cc45)C3)CC2)cc1 (centres unmarked) [Example 47, 2-[4-(4-{3-[2-(5-Trifluoromethyl-1H-indazol-3-ylamino)-acetylamino]-azetidin-1-yl}-cyclohexyl)-phenyl]-acetamide]
26 | 10 nM | O=C(CNc1noc2ccc(OC(F)(F)F)cc12)NC1CN(C2CCC(c3ccc4c(c3)OCO4)CC2)C1 (centres unmarked) [Example 15, N-[1-(4-Benzo[1,3]dioxol-5-yl-cyclohexyl)-azetidin-3-yl]-2-(5-trifluoromethoxy-benzo[d]isoxazol-3-ylamino)-acetamide]
27 | 8.6 nM | CCn1nc(NCC(=O)NC2CN(C3CCC(O)(c4cnc(C)s4)CC3)C2)c2cc(C(F)(F)F)ccc21 (centres unmarked) [Example 69, 2-(1-Ethyl-5-trifluoromethyl-1H-indazol-3-ylamino)-N-{1-[4-hydroxy-4-(2-methyl-thiazol-5-yl)-cyclohexyl]-azetidin-3-yl}-acetamide]
28 | 8.4 nM | CCn1nc(NCC(=O)NC2CN(C3CCC(O)(c4cncs4)CC3)C2)c2cc(C(F)(F)F)ccc21 (centres unmarked) [Example 67, 2-(1-Ethyl-5-trifluoromethyl-1H-indazol-3-ylamino)-N-[1-(4-hydroxy-4-thiazol-5-yl-cyclohexyl)-azetidin-3-yl]-acetamide]
29 | 4.8 nM | CN(C)c1cccc(C2(O)CCC(N3CC(NC(=O)CNc4nn(C)c5ccc(C(F)(F)F)cc45)C3)CC2)c1 (centres unmarked) [Example 20, N-{1-[4-(3-Dimethylamino-phenyl)-4-hydroxy-cyclohexyl]-azetidin-3-yl}-2-(1-methyl-5-trifluoromethyl-1H-indazol-3-ylamino)-acetamide]
